Test results published in patent US10995068B2, “Synthetic sphingolipid-like molecules, drugs, methods of their synthesis and methods of treatment” (The Regents of the University of California, priority 2015, dated 2021).
Values joined by “and” are separate entries in the source; they are usually repeats but may differ in a detail not shown here. Equal values may be shown once.

Assays:
FL5.12 cells = assay: Vacuolation assay; assay type: cell-based, murine; parameters: key to Vacuolation score: 0-100 score: (3×%cat3+2×%cat2+1×%cat1)/3; cells graded 0-3 for vacuoles; conditions: FL5.12 cells, 3 h in 2.5 μM compound except where otherwise indicated, mean ± SEM, n ≥3
Method: In an exemplified study, nutrient transporter down-regulation was monitored by quantifying surface levels of the amino acid transporter-associated protein, CD98, by flow cytometry. Vacuolation was scored in a range from 0 to […], as determined by a vacuolation assay described in greater detail in the Materials and Methods section below.
Vacuolation assay: Cells were evaluated at 100× using brightfield microscopy and a Nikon TE2000-S fluorescence microscope equipped with DIC filters. Vacuolation was quantified after a 3 h incubation period in 2.5 μM compound except where otherwise indicated. To calculate a vacuolation score, vacuolation severity in at least 15 individual cells/experiment was assessed qualitatively. Scores were assigned to individual cells as follows: 0=no vacuoles, 1=very small vacuoles, 2=multiple well-defined vacuoles, 3=multiple large vacuoles. To calculate the vacuolation score associated with a compound, the following formula was used: vacuolation score=[(3×% cells in category 3)+(2×% cells in category 2)+(1×% cells in category 1)]/3.
The score is divided by 3 so that a compound with 100% of its cells in category 3 would have a vacuolation score of 100. Three independent experiments were conducted and the vacuolation scores averaged to generate a mean+/−SEM. All cells were scored by one lab member after confirming that a blinded individual scored 5 compounds with similar results.

[1] = test system: subcutaneous SW620 xenograft tumors; assay: SW620 xenograft study in nude mice; assay type: in vivo
Method: In even another exemplary study, anti-neoplasm potency of the constrained pyrrolidine sphingolipid-like compounds in xenograft tumor animal studies. Nude mice bearing subcutaneous SW620 xenograft tumors were treated daily with 10 mg/kg FTY720 or 20 mg/kg of compounds 5 or 15 by intraperitoneal injection. […] Furthermore, these compounds retain many of the beneficial abilities of FTY720, such as, for example water solubility, oral bioavailability, and anti-tumor activity but no longer trigger bradycardia. Thus, these compounds are ideal for medicaments and treatments for neoplasms.
SW620 and SW480 xenograft studies: For SW620 xenograft studies, two and one half million luciferase-expressing SW620 colon cancer cells suspended in PBS with 2% FCS are injected subcutaneously in the flank of 7 week old male nude mice (Charles Rivers Labs, Crl:NU(NCr)-Foxn1nu). When tumors reached 100 mm^3 in volume, mice are assigned to groups with matched average tumor volumes and animal weights. Four groups containing 7 mice are treated intraperitoneally with either vehicle (0.9% saline), 10 mg/kg FTY720, or 20 mg/kg compound 5 or compound 15. Tumor length and width are measured with calipers at 7 and 11 days of treatment. Tumor volume is calculated using the formula volume (mm^3)=length [mm]×(width [mm])^2×0.52. The average fold change in the volume of each tumor over time is shown.

S1P receptor 5 = molecular target: T1, S1P receptor 5 (Homo sapiens, UniProt Q9H228); assay: S1P receptor activation in CHO cells, S1P5; assay type: cell-based; conditions: CHO cells over-expressing human S1P5
T1 construct: expressed in transfected cells
T1 sequence (Q9H228 whole entry): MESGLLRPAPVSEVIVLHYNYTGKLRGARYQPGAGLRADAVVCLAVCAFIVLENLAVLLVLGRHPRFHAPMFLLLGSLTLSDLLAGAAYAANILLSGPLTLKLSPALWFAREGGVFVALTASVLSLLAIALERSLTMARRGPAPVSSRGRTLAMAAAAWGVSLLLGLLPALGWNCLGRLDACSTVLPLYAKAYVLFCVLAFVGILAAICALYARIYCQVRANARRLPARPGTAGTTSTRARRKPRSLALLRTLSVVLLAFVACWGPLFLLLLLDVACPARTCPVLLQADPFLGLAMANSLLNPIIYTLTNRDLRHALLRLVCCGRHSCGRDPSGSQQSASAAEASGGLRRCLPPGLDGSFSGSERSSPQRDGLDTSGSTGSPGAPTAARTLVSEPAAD
Source text: (§1) Phosphorylation may have effects on S1P receptor activity that could cause bradycardia. Bradycardia, the dose-limiting toxicity that prevents the use of FTY720 in cancer patients, stems from FTY720-P's actions on S1P receptors 1 and 3. (Camm, J., et al. (2014) Am. Heart J. 168, 632-644; Cohen, J. A., Chun, J. (2011) Ann. Neurol. 69, 759-777; Sanna, M. G., et al. (2004) J. Biol. Chem. 279, 13839-13848; the disclosures of which are incorporated herein by reference). Phosphorylation by sphingosine kinase may make compounds competent to activate S1P receptors. FTY720, for example, when phosphorylated is known to activate S1P receptors 1 and 3. Because compound 5 could be phosphorylated, the activity of compound 5 and its phosphate 5-P (FIG. 28) on S1P receptors was evaluated (FIG. 32).
(§2) 51P1-5 activation: Chinese hamster ovary (CHO) cells stably over-expressing the different human 51P receptor subtypes are used. S1P1, S1P4 and S1P5 overexpressing CHO cells are cultured in medium containing alpha-MEM supplemented with 10% FBS, 50 μg/ml gentamycin and 0.5 mg/ml G418. S1P2 and S1P3 overexpressing CHO cells are cultured in RPMI containing 10% FBS, 50 μg/ml gentamycin and 0.5 mg/ml G418. Prior to stimulation, cells are rendered serum-free for 24 h. Stimulation is carried out for 10 min in serum-free DMEM containing 0.1 mg/ml of fatty-acid free BSA in the absence or presence of the various compounds or 51P. Protein lysates are prepared using a buffer containing (50 mM Tris pH 7.4, 150 mM NaCl, 10% glycerol, 1% Triton X-100, 2 mM EDTA, 2 mM EGTA, 40 mM β-glycerophosphate, 50 mM sodium fluoride, 10 mM sodium pyrophosphate, 2 mM dithiothreitol, 0.2 mM sodium orthovanadate). Cells are homogenized by one 5 sec burst in a MSE Ultrasonic Disintegrator, centrifuged and taken for protein determination. Equal amounts of protein are separated by SDS-PAGE (10% polyacrylamide gel), transferred to nitrocellulose membranes and subjected to Western blot analysis. Bands were stained using IRDye® secondary antibodies and visualized by the LICOR Odyssey® Fc Imaging system. Antibodies against phospho-Thr202/Tyr204-p42/p44-MAPK and phospho-Ser PKC substrate are from Cell Signaling, Frankfurt am Main, Germany. Polyclonal antisera against total p42 and total p44 were generated and characterized as previously described. (Huwiler, A.; Pfeilschifter, J. Br. J. Pharmacol. 1994, 113, 1455-1463; disclosure of which is incorporated herein by reference).

S1P receptor 1 = molecular target: T2, S1P receptor 1 (Homo sapiens, UniProt P21453); assay: S1P receptor activation in CHO cells, S1P1; assay type: cell-based; conditions: CHO cells over-expressing human S1P1, 10 min stimulation, Western blot
T2 construct: expressed in transfected cells
T2 sequence (P21453 whole entry): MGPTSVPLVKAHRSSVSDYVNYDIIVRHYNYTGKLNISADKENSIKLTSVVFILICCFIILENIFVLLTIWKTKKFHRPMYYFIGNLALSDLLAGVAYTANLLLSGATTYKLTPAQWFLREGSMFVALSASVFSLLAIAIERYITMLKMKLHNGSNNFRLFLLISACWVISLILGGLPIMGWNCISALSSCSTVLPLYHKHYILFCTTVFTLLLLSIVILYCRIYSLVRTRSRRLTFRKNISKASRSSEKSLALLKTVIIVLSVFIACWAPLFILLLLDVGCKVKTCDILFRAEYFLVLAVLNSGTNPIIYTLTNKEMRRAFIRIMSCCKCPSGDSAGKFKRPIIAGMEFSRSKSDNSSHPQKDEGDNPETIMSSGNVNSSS
Source text: as §1, §2

| SMILES | Vacuolation score (FL5.12 cells) | tumor growth of SW620 xenografts ([1]; 10 mg/kg daily by intraperitoneal injection) | activation of S1P receptor 5 (S1P receptor 5) | activation of S1P receptor 1 (S1P receptor 1) | Vacuolation score (FL5.12 cells; listed as 104) | tumor growth of SW620 xenografts ([1]; 20 mg/kg daily by intraperitoneal injection) |
| --- | --- | --- | --- | --- | --- | --- |
| CCCCCCCCc1ccc(CCC(N)(CO)CO)cc1.Cl [FTY720, 2-Amino-2-[2-(4-octylphenyl)ethyl]propane 1,3-diol hydrochloride, reference compound] | 82 ± 4 | inhibited tumor growth | – | – | – | – |
| CCCCCCCCc1ccc([C@H]2CCN[C@@H]2CO)cc1.Cl [Compound 5, (2S,3R)-2-(hydroxymethyl)-3-(4-octylphenyl)Pyrrolidinium chloride] | – | – | failed to activate | weakly activated | 81 and 81 ± 3 | inhibited tumor growth |
| CCCCCCCCc1ccc([C@@H]2CCN[C@H]2CO)cc1.Cl [Compound 6] | – | – | failed to activate | weakly activated | – | – |
